Reference: patent US10519098B2, “Aromatic derivatives as anti-malarial” (Council of Scientific & Industrial Research, priority 2014, dated 2019)
Where two headings read alike, the source gives them in different places.

Key:
[1] = test system: Chloroquine-sensitive (3D7) strain of P. falciparum; experiment: Malaria SYBR Green I-based fluorescence (MSF) assay, 3D7 strain; format: cell-based; settings: Plasmodium falciparum
Method: (§1) The stock (5 mg/mL or 10 mM) solutions of extracts were prepared in DMSO and required dilutions were made in culture medium.
(§2) Two-fold serial dilutions of test samples were made in 96 well plates and incubated with 1.0% parasitized cell suspension containing 0.8% parasitaemia (Asynchronous culture with more than 80% ring stages). The plates were incubated at 37° C. in CO2 incubator in an atmosphere of 5% CO2 and air mixture. 72 hours later 100 μL of lysis buffer containing 2× concentration of SYBR Green-I (Invitrogen) was added to each well and incubated for one hour at 37° C. The plates were examined at 485±20 nm of excitation and 530±20 nm of emission for relative fluorescence units (RFUs) per well using the fluorescence plate reader (FLX800, BIOTEK). IC50 values were obtained by Logit regression analysis of dose response curves (Singh et al. 2011).

in vitro = settings: monkey
Method: The cells were incubated with test sample dilutions for 72 h and MTT was used as reagent for detection of cytotoxicity. Podophyllotoxin (SIGMA) was used as the standard reference drug.

[2] = test system: Chloroquine-resistant (K1) strain of P. falciparum; experiment: Malaria SYBR Green I-based fluorescence (MSF) assay, K1 strain; format: cell-based; settings: Plasmodium falciparum
Method: as §1, §2

[3] = P. falciparum 3D7, 72 hours incubation, read-out: IC50 against 3D7
[4] = P. falciparum K1, 72 hours incubation, read-out: IC50 against K1
[5] = 3D7, range given for listed compounds, read-out: IC50 values against 3D7 culture
[6] = K1, range given for listed compounds, read-out: IC50 values against K1 culture

| Compound | IC50 [1, 3] [µM] | CC50 at 72 h (in vitro) [µM] | melting point [°C] | IC50 ([1]; 3D7, 72 h, read-out: IC50 against 3D7) [µM] | IC50 ([2]; K1, 72 h, read-out: IC50 against K1) [µM] | IC50 [2, 4] [µM] | IC50 [1, 5] [µM] | IC50 [2, 6] [µM] |
| --- | --- | --- | --- | --- | --- | --- | --- | --- |
| O=C(/C=C/c1ccccc1)OC[C@H](OC(=O)/C=C/c1ccccc1)c1ccc2c(c1)OCO2 [Compound 36, (R)-1-(benzo[d][1,3]dioxol-5-yl)ethane-1,2-diyl(2E,2′E)-bis(3-phenyl acrylate)] | > 5 | 56.6 | 108 to 110 |  |  |  |  |  |
| COc1ccccc1[C@H](COC(=O)/C=C/c1ccccc1)OC(=O)/C=C/c1ccccc1 [Compound 12, (R)-1-(2-methoxyphenyl)ethane-1,2-diyl (2E,2′E)-bis(3-phenylacrylate)] | > 5 | 51.7 |  |  |  |  |  |  |
| COc1cc([C@H](COC(=O)/C=C/c2ccccc2)OC(=O)/C=C/c2ccccc2)cc(OC)c1OC [Compound 8, (R)-1-(3,4,5-trimethoxyphenyl)ethane-1,2-diyl (2E,2′E)-bis(3-phenyl acrylate)] | > 5 | 122 |  |  |  |  |  |  |
| CCN(CC)CCCC(C)Nc1ccnc2cc(Cl)ccc12 (centres unmarked) [CQ, Chloroquine, reference compound] |  |  |  | 0.005 | 0.25 ± 0.02 |  |  |  |
| COc1cccc([C@H](COC(=O)/C=C/c2ccccc2)OC(=O)/C=C/c2ccccc2)c1OC [Compound 24, (R)-1-(2,3-dimethoxyphenyl)ethane-1,2-diyl(2E,2′E)-bis(3-phenyl acrylate)] | > 5 | 82.7 |  |  |  |  |  |  |
| COc1ccc([C@H](COC(=O)/C=C/c2ccccc2)OC(=O)/C=C/c2ccccc2)cc1 [Compound 20, (R)-1-(4-methoxyphenyl)ethane-1,2-diyl (2E,2′E)-bis(3-phenylacrylate)] | > 5 | 23.3 | 76 to 79 |  |  |  |  |  |
| COc1cccc([C@@H](CNC(=O)/C=C/c2ccccc2)OC(=O)/C=C/c2ccccc2)c1 [Compound 13, (S)-2-cinnamamido-1-(3-methoxyphenyl)ethyl cinnamate] | > 5 | 148 | 139 to 141 |  |  |  |  |  |
| COc1ccc([C@H](CNC(=O)/C=C/c2ccccc2)OC(=O)/C=C/c2ccccc2)cc1OC [Compound 2, (R)-2-cinnamamido-1-(3,4-dimethoxyphenyl)ethyl cinnamate] | > 5 | 66.7 | 123 to 125 |  |  |  |  |  |
| COc1ccc([C@H](COC(=O)/C=C/c2ccccc2)OC(=O)/C=C/c2ccccc2)cc1OC [Compound 4, (R)-1-(3,4-dimethoxyphenyl)ethane-1,2-diyl (2E,2′E)-bis(3-phenyl acrylate)] | > 5 | 5.87 |  |  |  | > 5 |  |  |
| COc1cccc([C@@H](CNC(=O)/C=C/c2ccccc2)OC(=O)/C=C/c2ccccc2)c1OC [Compound 21, (S)-2-cinnamamido-1-(2,3-dimethoxyphenyl)ethyl cinnamate] | > 5 | > 200 | 105 to 108 |  |  |  |  |  |
| COc1ccc([C@@H](COC(=O)/C=C/c2ccccc2)OC(=O)/C=C/c2ccccc2)cc1 [Compound 19, (S)-1-(4-methoxyphenyl)ethane-1,2-diyl (2E,2′E)-bis(3-phenylacrylate)] | > 5 | 33.5 | 93 to 96 |  |  |  |  |  |
| COc1cccc([C@H](COC(=O)/C=C/c2ccccc2)OC(=O)/C=C/c2ccccc2)c1 [Compound 16, (R)-1-(3-methoxyphenyl)ethane-1,2-diyl (2E,2′E)-bis(3-phenylacrylate)] | > 5 | 22.3 | 67 to 69 |  |  |  |  |  |
| CCCC(=O)NC[C@@H](OC(=O)CCC)c1ccc(OC)c(OC)c1 [Compound 45, (S)-2-butyramido-1-(3,4-dimethoxyphenyl)ethyl butyrate] | > 10 | 51.8 |  |  |  | > 10 |  |  |
| COc1cccc([C@@H](COC(=O)/C=C/c2ccccc2)OC(=O)/C=C/c2ccccc2)c1OC [Compound 23, (S)-1-(2,3-dimethoxyphenyl)ethane-1,2-diyl (2E,2′E)-bis(3-phenyl acrylate)] | > 5 | 28.4 |  |  |  |  |  |  |
| Cc1ccc([C@H](COC(=O)/C=C/c2ccccc2)OC(=O)/C=C/c2ccccc2)cc1 [Compound 32, (R)-1-(p-tolyl) ethane-1,2-diyl (2E,2′E)-bis(3-phenylacrylate)] | > 5 | > 200 | 103 to 105 |  |  |  |  |  |
| COc1cc([C@@H](COC(=O)/C=C/c2ccccc2)OC(=O)/C=C/c2ccccc2)cc(OC)c1OC [Compound 7, (S)-1-(3,4,5-trimethoxyphenyl)ethane-1,2-diyl(2E,2′E)-bis(3-phenyl acrylate)] | 3.37 | 6.44 |  |  |  | 3.47 | 2 to 7 | 1.5 to 4 |
| COc1ccc([C@@H](COC(=O)/C=C/c2ccccc2)OC(=O)/C=C/c2ccccc2)cc1OC [Compound 3, (S)-1-(3,4-dimethoxyphenyl)ethane-1,2-diyl(2E,2′E)-bis(3-phenyl acrylate)] | > 5 | 24.3 |  |  |  |  |  |  |
| COc1ccccc1[C@@H](COC(=O)/C=C/c1ccccc1)OC(=O)/C=C/c1ccccc1 [Compound 11, (S)-1-(2-methoxyphenyl)ethane-1,2-diyl (2E,2′E)-bis(3-phenylacrylate)] | 3.8 | 14 |  |  |  | 3.23 | 2 to 7 | 1.5 to 4 |
| COc1ccc([C@@H](CNC(=O)/C=C/c2ccccc2)OC(=O)/C=C/c2ccccc2)cc1 [Compound 17, (S)-2-cinnamamido-1-(4-methoxyphenyl)ethyl cinnamate] | > 5 |  | 137 to 139 |  |  |  |  |  |
| O=C(/C=C/c1ccccc1)OC[C@@H](OC(=O)/C=C/c1ccccc1)c1cccc2c1OCO2 [Compound 37, (S)-1-(benzo[d][1,3]dioxol-4-yl)ethane-1,2-diyl(2E,2′E)-bis(3-phenyl acrylate)] | > 10 | > 200 |  |  |  | > 10 |  |  |
| COc1ccc([C@@H](CNC(=O)/C=C/c2cccc(O[Si](C)(C)C(C)(C)C)c2)OC(=O)/C=C/c2cccc(O[Si](C)(C)C(C)(C)C)c2)cc1OC [Compound 47, (S)-2-((E)-3-(3-((tert-butyldimethylsilyl)oxy)phenyl)acrylamido)-1-(3,4-dimethoxyphenyl)ethyl (E)-3-(3-((tert-butyldimethylsilyl)oxy)phenyl)acrylate] | > 10 | 52.6 |  |  |  | 7.52 |  |  |
| COc1ccc([C@H](CNC(=O)/C=C/c2ccccc2)OC(=O)/C=C/c2ccccc2)cc1 [Compound 18, (R)-2-cinnamamido-1-(4-methoxyphenyl)ethyl cinnamate] | > 5 |  | 138 to 140 |  |  |  |  |  |
| COc1ccc([C@@H](CNC(=O)/C=C/c2ccccc2O[Si](C)(C)C(C)(C)C)OC(=O)/C=C/c2ccccc2O[Si](C)(C)C(C)(C)C)cc1OC [Compound 46, (S)-2-((E)-3-(2-((tert-butyldimethylsilyl)oxy)phenyl)acrylamido)-1-(3,4-dimethoxyphenyl)ethyl (E)-3-(2-((tert-butyldimethylsilyl)oxy)phenyl)acrylate] | 8.49 | 58.9 |  |  |  | 4.56 |  |  |
| O=C(/C=C/c1ccccc1)OC[C@H](OC(=O)/C=C/c1ccccc1)c1cccc2c1OCO2 [Compound 38, (R)-1-(benzo[d][1,3]dioxol-4-yl)ethane-1,2-diyl(2E,2′E)-bis(3-phenyl acrylate)] | 7.42 | > 200 |  |  |  | > 10 |  |  |
